Data on 13 compounds can be found in patent US7345070B2, “Peroxisome proliferator activated receptor agonists” (Eli Lilly and Company, priority 2000, dated 2008).

For assay [1], the target named is T1, huPPARγ (Homo sapiens, UniProt P37231).
T1 sequence (P37231 1-505): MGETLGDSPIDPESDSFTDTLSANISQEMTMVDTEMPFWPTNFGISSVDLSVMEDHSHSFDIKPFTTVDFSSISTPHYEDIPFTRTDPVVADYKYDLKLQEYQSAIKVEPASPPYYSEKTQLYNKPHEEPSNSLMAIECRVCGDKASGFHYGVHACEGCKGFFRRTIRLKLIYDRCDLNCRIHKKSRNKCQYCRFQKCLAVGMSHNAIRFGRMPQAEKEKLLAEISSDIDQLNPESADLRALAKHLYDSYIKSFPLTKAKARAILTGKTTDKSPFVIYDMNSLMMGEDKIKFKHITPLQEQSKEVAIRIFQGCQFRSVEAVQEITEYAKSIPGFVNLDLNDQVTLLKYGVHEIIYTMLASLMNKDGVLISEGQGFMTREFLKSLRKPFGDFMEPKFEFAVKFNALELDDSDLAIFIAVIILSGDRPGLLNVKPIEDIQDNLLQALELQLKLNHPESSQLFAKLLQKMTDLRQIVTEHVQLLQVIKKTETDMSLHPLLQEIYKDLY
T1 sequence (P19793 1-462 partner): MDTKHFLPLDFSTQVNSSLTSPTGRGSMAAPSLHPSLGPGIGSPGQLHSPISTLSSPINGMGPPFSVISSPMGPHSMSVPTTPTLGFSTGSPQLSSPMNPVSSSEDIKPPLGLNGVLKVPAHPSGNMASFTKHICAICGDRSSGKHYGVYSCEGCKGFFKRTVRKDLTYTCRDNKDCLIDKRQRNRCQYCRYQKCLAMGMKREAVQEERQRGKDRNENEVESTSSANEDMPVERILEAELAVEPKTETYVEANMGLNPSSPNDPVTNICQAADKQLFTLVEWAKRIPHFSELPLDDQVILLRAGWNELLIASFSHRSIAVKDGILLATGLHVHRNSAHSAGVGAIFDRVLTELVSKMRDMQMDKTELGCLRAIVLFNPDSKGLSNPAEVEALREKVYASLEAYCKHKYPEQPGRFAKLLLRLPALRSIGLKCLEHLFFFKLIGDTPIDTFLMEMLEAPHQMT
Briefly: Cotransfection assay in CV-1 cells, huPPARγ. It counts as cell-based. The arrangement: Appropriate PPARs and RXRα were constitutively expressed using plasmids containing the CMV promoter; expressed in transfected cells; host or cells: CV-1 cells. Conditions: AOX PPRE luciferase reporter, relative to PPARγ agonist reference molecule, read-out: huPPARγ CTF Efficacy. The procedure:
(§1) DNA-dependent binding (ABCD binding) was carried out using SPA technology with PPAR receptors. Tritium-labeled PPARα and PPARγ agonists were used as radioligands for generating displacement curves and IC50 values with compounds of the invention. Cotransfection assays were carried out in CV-1 cells. The reporter plasmid contained an acylCoA oxidase (AOX) PPRE and TK promoter upstream of the luciferase reporter cDNA. Appropriate PPARs and RXRα were constitutively expressed using plasmids containing the CMV promoter. […] In order to eliminate such interference, a GAL4 chimeric system was used in which the DNA binding domain of the transfected PPAR was replaced by that of GAL4, and the GAL4 response element was utilized in place of the AOX PPRE. Cotransfection efficacy was determined relative to PPARα agonist and PPARγ agonist reference molecules. Efficacies were determined by computer fit to a concentration-response curve, or in some cases at a single high concentration of agonist (10 μM). For binding or cotransfection studies with receptors other than PPARs, similar assays were carried out using appropriate ligands, receptors, reporter constructs, etc., for that particular receptor.
(§2) These studies were carried out to evaluate the ability of compounds of the invention to bind to and/or activate various nuclear transcription factors, particularly huPPARα (“hu” indicates “human”) and huPPARγ. These studies provide in vitro data concerning efficacy and selectivity of compounds of the invention. Furthermore, binding and cotransfection data for compounds of the invention were compared with corresponding data for marketed compounds that act on either huPPARα or huPPARγ.
For orientation: Reporter assays use an easily measured gene product as a stand-in for the process of interest.

The target of assay [2] is T2, huPPARα (Homo sapiens, UniProt Q07869).
T2 sequence (Q07869 1-468): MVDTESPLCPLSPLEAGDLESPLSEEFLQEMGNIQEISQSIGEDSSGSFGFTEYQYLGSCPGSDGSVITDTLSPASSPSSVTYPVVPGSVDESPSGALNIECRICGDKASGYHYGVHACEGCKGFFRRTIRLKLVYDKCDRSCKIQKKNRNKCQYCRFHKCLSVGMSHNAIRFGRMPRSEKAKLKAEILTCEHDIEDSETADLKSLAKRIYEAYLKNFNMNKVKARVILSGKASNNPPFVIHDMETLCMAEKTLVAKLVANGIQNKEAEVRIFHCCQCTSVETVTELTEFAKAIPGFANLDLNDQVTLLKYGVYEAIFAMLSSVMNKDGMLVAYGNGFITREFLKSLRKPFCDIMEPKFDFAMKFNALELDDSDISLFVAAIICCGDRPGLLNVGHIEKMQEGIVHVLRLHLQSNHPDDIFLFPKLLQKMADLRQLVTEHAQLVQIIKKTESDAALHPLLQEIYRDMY
T2 sequence (P19793 1-462 partner): T1 sequence (P19793 1-462 partner)
In words: DNA-dependent binding (ABCD binding) using SPA technology, huPPARα. The following applies: SPA displacement of tritium-labeled PPARα agonist radioligand. The procedure: as §1, §2

Assay [3] deals with T1, huPPARγ. In words: DNA-dependent binding (ABCD binding) using SPA technology, huPPARγ. The following applies: SPA displacement of tritium-labeled PPARγ agonist radioligand. The procedure:
as §1, §2

Structures are written as SMILES.

With `Cc1oc(C2CCCCC2)nc1CCOc1ccc(CC(C)(Oc2ccc(C(F)(F)F)cc2)C(=O)O)cc1` (stereo not drawn) [Example 52, 3-{4-[2-(2-Cyclohexyl-5-methyl-oxazol-4-yl)-ethoxy]-phenyl}-2-methyl-2-(4-trifluoromethyl-phenoxy)-propionic acid], the Emax in assay [1] worked out at 61%. Also, the values for the IC50 in assay [2] and in assay [3] were 62 nM and 76 nM, respectively.

Consider `Cc1oc(C2CCCCC2)nc1CCOc1ccc(CC(C)(Oc2ccc(F)c(F)c2)C(=O)O)cc1` (stereo not drawn) [Example 58, 3-{4-[2-(2-Cyclohexyl-5-methyl-oxazol-4-yl)-ethoxy]-phenyl}-2-(3,4-difluoro-phenoxy)-2-methyl-propionic acid], for which, in assay [1], the Emax came to 41%. Moreover, the IC50 (commonly the concentration at which inhibition is half-maximal) in assay [2] was found to be 60 nM; in assay [3], 66 nM.

Regarding `Cc1cccc(OC(C)(Cc2ccc(OCCc3nc(-c4cccs4)oc3C)cc2)C(=O)O)c1` (stereo not drawn) [Example 61, 2-Methyl-3-{4-[2-(5-methyl-2-thiophen-2-yl-oxazol-4-yl)-ethoxy]-phenyl}-2-m-tolyloxy-propionic acid], the Emax in assay [1] was 12%. Further, the IC50 was found to be 64 nM in assay [2] and 84 nM in assay [3].

On to `Cc1cccc(OC(C)(Cc2ccc(OCCc3nc(C4CCCCC4)oc3C)cc2)C(=O)O)c1` (stereo not drawn) [Example 62, 3-{4-[2-(2-Cyclohexyl-5-methyl-oxazol-4-yl)-ethoxy]-phenyl}-2-methyl-2-m-tolyloxy-propionic acid], for which the Emax in assay [1] is 35%. The IC50 is 58 nM in assay [2] and 79 nM in assay [3].

For the compound `Cc1oc(-c2cccs2)nc1CCOc1ccc(CC(C)(Oc2ccc(F)cc2)C(=O)O)cc1` (stereo not drawn) [Example 64, 2-(4-Fluoro-phenoxy)-2-methyl-3-{4-[2-(5-methyl-2-thiophen-2-yl-oxazol-4-yl)-ethoxy]-phenyl}-propionic acid], the Emax in assay [1] is 11%. Besides, the IC50 in assay [2] came out at 67 nM; in assay [3], 112 nM.

As to `Cc1oc(C2CCCCC2)nc1CCOc1ccc(CC(C)(Oc2ccc(F)cc2)C(=O)O)cc1` (stereo not drawn) [Example 65, 3-{4-[2-(2-Cyclohexyl-5-methyl-oxazol-4-yl)-ethoxy]-phenyl}-2-(4-fluoro-phenoxy)-2-methyl-propionic acid], the Emax in assay [1] was found to be 24%. In addition, the IC50 was determined as 71 nM in assay [2] and 82 nM in assay [3].

For `Cc1oc(C2(C)CCCCC2)nc1CCOc1ccc(C[C@](C)(Oc2ccc(F)cc2)C(=O)O)cc1` [Example 67, (S)-2-(4-Fluoro-phenoxy)-2-methyl-3-(4-{2-[5-methyl-2-(1-methyl-cyclohexyl)-oxazol-4-yl]-ethoxy}-phenyl)-propionic acid], the Emax in assay [1] worked out at 11%. Further, the results for the half-maximal inhibitory concentration (IC50) in assay [2] and in assay [3] were 61 nM and 65 nM, respectively.

In the case of `Cc1oc(-c2cccs2)nc1CCOc1ccc(CC(C)(Oc2cccc(C(F)(F)F)c2)C(=O)O)cc1` (stereo not drawn) [Example 71, 2-Methyl-3-{4-[2-(5-methyl-2-thiophen-2-yl-oxazol-4-yl)-ethoxy]-phenyl}-2-(3-trifluoromethyl-phenoxy)-propionic acid], the Emax in assay [1] worked out at 50%. Moreover, the IC50 in assay [2] is 78 nM; in assay [3] it was 81 nM.

Take `COc1cccc(OC(C)(Cc2ccc(OCCc3nc(C4CCCCC4)oc3C)cc2)C(=O)O)c1` (stereo not drawn) [Example 76, 3-{4-[2-(2-Cyclohexyl-5-methyl-oxazol-4-yl)-ethoxy]-phenyl}-2-(3-methoxy-phenoxy)-2-methyl-propionic acid]: the Emax in assay [1] amounted to 24%. Besides, the IC50 in assay [2] is 76 nM; in assay [3], 83 nM.

As for `Cc1oc(-c2ccccc2)nc1CCOc1ccc(CC(C)(Oc2ccc3c(c2)OCO3)C(=O)O)cc1` (stereo not drawn) [Example 78, 2-(Benzo[1,3]dioxol-5-yloxy)-2-methyl-3-{4-[2-(5-methyl-2-phenyl-oxazol-4-yl)-ethoxy]-phenyl}-propionic acid], the Emax in assay [1] was 17%. The IC50 was 75 nM in assay [2] and 89 nM in assay [3].

As for `Cc1oc(C2CCCCC2)nc1CCOc1ccc(CC(C)(Oc2ccc3c(c2)OCO3)C(=O)O)cc1` (stereo not drawn) [Example 80, 2-(Benzo[1,3]dioxol-5-yloxy)-3-{4-[2-(2-cyclohexyl-5-methyl-oxazol-4-yl)-ethoxy]-phenyl}-2-methyl-propionic acid], in assay [1], the Emax was 30%. Also, the figures for the IC50 in assay [2] and in assay [3] were 76 nM and 80 nM, respectively.

In the case of `Cc1oc(CCc2ccccc2)nc1CCOc1ccc(C[C@](C)(Oc2ccccc2)C(=O)O)cc1` [Example 86, (S)-2-Methyl-3-{4-[2-(5-methyl-2-phenethyl-oxazol-4-yl)-ethoxy]-phenyl}-2-phenoxy-propionic acid], in assay [1], the Emax worked out at 7%. The results for the IC50 in assay [2] and in assay [3] were 55 nM and 72 nM, respectively.

For `Cc1oc(-c2ccccc2)nc1CCCc1ccc(CC(C)(Oc2ccccc2)C(=O)O)s1` (stereo not drawn) [Example 91, 2-Methyl-3-{5-[3-(5-methyl-2-phenyl-oxazol-4-yl)-propyl]-thiophen-2-yl}-2-phenoxy-propionic acid], in assay [1], the Emax worked out at 62%. Besides, the IC50 in assay [2] came out at 215 nM; in assay [3] it was 51 nM.
